# Measured values taken from patent publication US20170015555A1, “LONG-TERM PRESERVATION AND NOVEL APPLICATION OF CHLOROUS ACID AQUEOUS SOLUTION FORMULATION” (priority 2013, published 2017).
# System: Salmonella Enteritidis IF03313
# Test: Permeability of pathogenic microbes when treatment sheets were laid on vomit
# Assay type: cell-based
# Conditions: 1000 ppm available chlorine
# Text: 1) Chlorous acid aqueous solution formulation (see Example 1: Table 11) Treatment sheet (material: 100% cotton): (about 27×40 cm) *Impregnated at a ratio of weight of treatment sheet (g): amount of liquid (ml)=1:3 2) Imitation vomit (hereinafter, referred to as vomit) Miso solution: adjusted to pH 2 with hydrochloric acid 3) Test Microbes that were used E. coli: Escherichia coli IF03927 Staphylococcus aureus: Staphylococcus aureus IF0 12732 Thermoduric Microbes (Bacillus cereus): Bacillus cereus NBRC15305 Microbes of the genus Salmonella: Salmonella Enteritidis IF03313 Enterohemorrhagic Escherichia coli 0157: Escherichia coli 0157 Enterohemorrhagic Escherichia coli 0111: Escherichia coli 0111 Enterohemorrhagic Escherichia coli 026: Escherichia coli O26
# Permeability of pathogenic microbes into a treatment sheet when treating vomit was examined to compare effects of preventing secondary contamination. (1) Imitation vomit is spread in an area about the size of an A4 sheet. (2) 30 agent solution-containing treatment sheets were laid thereon and left standing for 10 minutes. (3) Treatment sheets were removed one at a time from the top. After diluting with saline, the sample was spread in a petri dish and cultured.
compound,measurement,setting,value
"OCl [Sodium Hypochlorite, sodium hypochlorite]","Microbe count, 1 sheet laid on imitation vomit",Day 0 at 25° C.,2.0 × 10^2
same,"Microbe count, 2 sheets laid on imitation vomit",Day 0 at 25° C.,<10
same,"Microbe count, 3 sheets laid on imitation vomit",Day 0 at 25° C.,<10
same,"Microbe count, 4 sheets laid on imitation vomit",Day 0 at 25° C.,<10
same,"Microbe count, 5 sheets laid on imitation vomit",Day 0 at 25° C.,<10
same,"Microbe count, 6 sheets laid on imitation vomit",Day 0 at 25° C.,<10
same,"Microbe count, 8 sheets laid on imitation vomit",Day 0 at 25° C.,<10
same,"Microbe count, 10 sheets laid on imitation vomit",Day 0 at 25° C.,<10
same,"Microbe count, 20 sheets laid on imitation vomit",Day 0 at 25° C.,<10
same,"Microbe count, 30 sheets laid on imitation vomit",Day 0 at 25° C.,<10
same,"Microbe count, 1 sheet laid on imitation vomit",Day 7 at 25° C.,>10^6
same,"Microbe count, 2 sheets laid on imitation vomit",Day 7 at 25° C.,>10^6
same,"Microbe count, 3 sheets laid on imitation vomit",Day 7 at 25° C.,>10^6
same,"Microbe count, 4 sheets laid on imitation vomit",Day 7 at 25° C.,>10^6
same,"Microbe count, 5 sheets laid on imitation vomit",Day 7 at 25° C.,>10^6
same,"Microbe count, 6 sheets laid on imitation vomit",Day 7 at 25° C.,>10^6
same,"Microbe count, 8 sheets laid on imitation vomit",Day 7 at 25° C.,1.1 × 10^4
same,"Microbe count, 10 sheets laid on imitation vomit",Day 7 at 25° C.,7.1 × 10^2
same,"Microbe count, 20 sheets laid on imitation vomit",Day 7 at 25° C.,<10
same,"Microbe count, 30 sheets laid on imitation vomit",Day 7 at 25° C.,<10
